{"source": "patent US6649634B2", "about": "“Substituted N-( indole-2-carbonyl-) amides and derivatives as glycogen phosphorylase inhibitors” (Pfizer, Inc., priority 1995, dated 2003)"}
{"smiles": "CON(C)C(=O)C(O)CNC(=O)c1cc2cc(Cl)ccc2[nH]1", "note": "(racemic) [Example 30, 5-Chloro-1H-indole-2-carboxylic acid [(2RS)-hydroxy-2-(methoxy-methyl-carbamoyl)-ethyl]-amide]", "values": [{"measurement": "melting point", "value": "192 to 192.5", "unit": "°C"}]}
